Source: patent publication US12202868B1, “Stapled and specifically targeted antimicrobial peptide” (KING SAUD UNIVERSITY, priority 2024, dated 2025)
Values after ≈ are worked out from the molar mass of the structure shown. Where two headings read alike, the source gives them in different places. Positions of bridges follow the written chain, without caps; N, C: chain ends. Non-standard residues stand in square brackets, D forms with d. Residues, ends and D or L forms follow the SMILES beside them. S5 = C=CCCC[C@](C)(N)C(=O)O

How the values were obtained:
[1] = test system: Bacillus subtilis; assay: microbe, parasite or virus in culture; type: cell-based; settings: B. subtilis, 30 μl in 6 mm well, ssTAMP 100 μg/ml, Kanamycin 10 μg/ml, 24 hours, mean±SD, n=3
Protocol: (§1) Microbial cultures were procured from the microbiology department, College of Pharmacy, King Saud University, Riyadh. Strains were grown aerobically at 37° C. with shaking in Muller Hilton media.
(§2) The agar diffusion method was used to examine the synthesized ssTAMP's antibacterial activity. Pure colonies of Bacillus subtilis, Streptococcus pneumonia, Staphalycoccus aureus, Streptococcus mutans, Escherichia coli, and Kleibsella pneumonia were used for antibacterial susceptibility testing according to Clinical Laboratory Standards Institute (CLSI) 2021 guidelines by using a modified Kirby-Bauer disk diffusion technique. In brief, homogeneous colonies were chosen from each microbial strain and grown on Mullar Hilton broth at log phase. 0.5 McFarland standard culture was used to spread on to the Mullar Hilton agar plates. Freshly prepared 30 μl each of Kanamycin 10 μg/ml and ssTAMP 100 μg/ml was poured into 6 mm diameter well, blank well with equivalent amount of saline served as a […]. The plates were incubated for 24 hours, and the diameter of the inhibition zone was measured to determine if the findings were susceptible or resistant. The full analysis was carried out three times.
(§3) The agar diffusion method was used to test antimicrobial susceptibility of sSTAMP against B. Subtilis, S. Pneumoniae, S. Aureus, S. Mutans, E. Coli, and Kleibsella pneumonia strains (FIG. 1).

[2] = test system: Escherichia coli; assay: microbe, parasite or virus in culture; type: cell-based; settings: E. coli, 30 μl in 6 mm well, ssTAMP 100 μg/ml, Kanamycin 10 μg/ml, 24 hours, mean±SD, n=3
Protocol: as §1, §2, §3

[3] = test system: Staphylococcus aureus; assay: microbe, parasite or virus in culture; type: cell-based; settings: S. aureus, 30 μl in 6 mm well, ssTAMP 100 μg/ml, Kanamycin 10 μg/ml, 24 hours, mean±SD, n=3
Protocol: as §1, §2, §3

[4] = test system: Streptococcus mutans; assay: microbe, parasite or virus in culture; type: cell-based; settings: S. mutans, 30 μl in 6 mm well, ssTAMP 100 μg/ml, Kanamycin 10 μg/ml, 24 hours, mean±SD, n=3
Protocol: as §1, §2, §3

[5] = test system: Streptococcus pneumonia; assay: microbe, parasite or virus in culture; type: cell-based; settings: S. pneumonia, 30 μl in 6 mm well, ssTAMP 100 μg/ml, Kanamycin 10 μg/ml, 24 hours, mean±SD, n=3
Protocol: as §1, §2, §3

[6] = test system: Kleibsella pneumonia; assay: organism not typed; type: cell-based; settings: 30 μl in 6 mm well, ssTAMP 100 μg/ml, Kanamycin 10 μg/ml, 24 hours, mean±SD, n=3
Protocol: as §1, §2, §3

[7] = test system: B. subtilis
[8] = test system: S. pneumonia
[9] = test system: S. mutans
[10] = test system: E. coli
[11] = test system: Kleibsella pneumonia
[12] = test system: Kleibsella pneumonia; assay: organism not typed; settings: read-out: Minimum Inhibitory concentration
[13] = test system: B. subtilis; assay: microbe, parasite or virus in culture; settings: Bacillus subtilis, read-out: Minimum Inhibitory concentration
[14] = test system: S. pneumonia; assay: microbe, parasite or virus in culture; settings: Streptococcus pneumoniae, read-out: Minimum Inhibitory concentration
[15] = test system: S. aureus; assay: microbe, parasite or virus in culture; settings: Staphylococcus aureus, read-out: Minimum Inhibitory concentration
[16] = test system: S. mutans; assay: microbe, parasite or virus in culture; settings: Streptococcus mutans, read-out: Minimum Inhibitory concentration
[17] = test system: E. coli; assay: microbe, parasite or virus in culture; settings: Escherichia coli, read-out: Minimum Inhibitory concentration
[18] = test system: A549 lung cancer cells; type: cell-based; settings: human, 24 h
Protocol: (§4) MCF-7 and A549 cells were cultured under aseptic conditions at 37° C. and 5% CO2 using Dulbecco's Modified Eagle's Medium (DMEM), accompanied with 1% mixture of “Penicillin-Streptomycin”, and 10% Fetal Bovine Serum (FBS). The cells were processed and grown in a sterile environment and all the procedures were done in a biosafety cabinet. The cells were harvested using 0.25% trypsin containing EDTA and phenol red, once they reached around 80% confluency. To test the in-vitro toxicity of the antimicrobial peptide, the harvested cells were seeded in 96 well plates for conducting a cell viability assay using MTT (3-(4,5-dimethylthiazol-2-yl)-2,5-diphenyl tetrazolium bromide).
(§5) In order to investigate the in-vitro cytotoxicity of ssTAMP using the MTT assay, cell viability was carried out in MCF-7 and A549 cells. To achieve a cell density of 5×10^5 cells/mL, trypsin was introduced to the cells during their exponential phase of growth. After that, 100 μL of media and the cell suspension (15000 cells/well) were placed on a flat-bottomed microplate, where they were left to attach to the bottom overnight. The following day, 10 μL of freshly prepared medium containing ssTAMP concentrations ranging from 7.81 to 1000 µg/mL was added to the preexisting medium. As a negative control, a triplicate of untreated, FBS-free DMEM were used. Each product's dilution was tested three times. After 24 hours, the media was carefully removed from the wells. After that, 10 μL of MTT solution (5 mg/mL in PBS) and 90 μL of the medium were added. After that, this combination was incubated for 4 hours at room temperature. The medium and MTT in the culture fluid were then drawn out, leaving the formazan crystal precipitate. Formazan was dissolved for 15 minutes at room temperature in a […]. At 570 nm, the absorbance was measured (Synergy HT, BioTek Inst., VT, USA). Cell viability was calculated as a percentage of the absorbance when compared with negative control considered as 100%. The cytotoxic effects of ssTAMP on MCF-7 and A549 cells were expressed as IC50 values.
(§6) The percentage cell viabilities of MCF-7 breast cancer cells and A549 lung cancer cells against varying concentrations of ssTAMP are presented in FIGS. 3A-3B. […] The cytotoxicity starts to appear at the lowest concentration of ssTAMP used (7.81 μg/mL in MCF-7, and 15.62 μg/mL in A549). The effect pattern of the ssTAMP in both the cell lines is similar up to the concentration of 250 μg/mL. However MCF-7 appear to be more sensitive at higher concentrations of ssTAMP above 250 μg/mL.

[19] = test system: MCF-7 breast cancer cells; type: cell-based; settings: human, 24 h
Protocol: as §4, §5, §6

[20] = test system: S. aureus
[21] = B. subtilis, microdilution, overnight 37° C., mean±SD, n=3
[22] = S. pneumonia, microdilution, overnight 37° C., mean±SD, n=3
[23] = S. mutans, microdilution, overnight 37° C., mean±SD, n=3
[24] = E. coli, microdilution, overnight 37° C., mean±SD, n=3
[25] = Kleibsella pneumonia, microdilution, overnight 37° C., mean±SD, n=3

SMILES: NC[C@H]1O[C@H](O[C@H]2[C@H](O)[C@@H](O[C@H]3O[C@H](CO)[C@@H](O)[C@H](N)[C@H]3O)[C@H](N)C[C@@H]2N)[C@H](O)[C@@H](O)[C@@H]1O [Kanamycin]
- Zone of inhibition [1]: 16.40 ± 0.46 mm
- zone of inhibition at 10 µg/mL ([1]; Bacillus subtilis): 16.4 ± 0.46 mm
- Zone of inhibition [2]: 14.90 ± 0.25 mm
- zone of inhibition at 10 µg/mL ([2]; Escherichia coli): 14.9 ± 0.25 mm
- Zone of inhibition [3]: 16.07 ± 0.45 mm
- zone of inhibition at 10 µg/mL ([3]; Staphylococcus aureus): 16.1 ± 0.45 mm
- Zone of inhibition [4]: 18.37 ± 0.58 mm
- zone of inhibition at 10 µg/mL ([4]; Streptococcus mutans): 18.4 ± 0.58 mm
- Zone of inhibition [5]: 15.70 ± 0.4 mm
- zone of inhibition at 10 µg/mL ([5]; Streptococcus pneumoniae): 15.7 ± 0.4 mm
- Zone of inhibition [6]: 15.10 ± 0.74 mm
- zone of inhibition at 10 µg/mL [6]: 15.1 ± 0.74 mm
- Minimum Inhibitory concentration [7, 21]: 1.67 ± 0.42 µg/mL
- Minimum Inhibitory concentration [8, 22]: 1.67 ± 0.42 µg/mL
- Minimum Inhibitory concentration [9, 23]: 1.04 ± 0.21 µg/mL
- Minimum Inhibitory concentration [10, 24]: 1.46 ± 0.55 µg/mL
- Minimum Inhibitory concentration [11, 25]: 1.25 ± 0.00 µg/mL
- MIC [12]: 1.25 µg/mL (≈ 2.58 µM)
- MIC [13]: 1.67 ± 0.42 µg/mL (≈ 3.45 µM)
- MIC [14]: 1.67 ± 0.42 µg/mL (≈ 3.45 µM)
- MIC [15]: 1.67 ± 0.42 µg/mL (≈ 3.45 µM)
- MIC [16]: 1.04 ± 0.21 µg/mL (≈ 2.15 µM)
- MIC [17]: 1.46 ± 0.55 µg/mL (≈ 3.01 µM)

SMILES: CC[C@H](C)[C@H](NC(=O)[C@H](CCCNC(=N)N)NC(=O)[C@H](CCCCN)NC(=O)[C@]1(C)CCCC=CCCC[C@](C)(NC(=O)[C@H](CCCCN)NC(=O)[C@H](CCC(=O)O)NC(=O)[C@H](CCCCN)NC(=O)[C@H](CO)NC(=O)[C@H](CCCCN)NC(=O)[C@H](CCCNC(=N)N)NC(=O)[C@H](Cc2ccccc2)NC(=O)[C@H](Cc2ccccc2)NC(=O)CNC(=O)CNC(=O)[C@H](CC(N)=O)NC(=O)[C@H](CCCNC(=N)N)NC(=O)[C@H](Cc2ccccc2)NC(=O)[C@@H](NC(=O)[C@H](C)NC(=O)[C@@H](NC(=O)[C@H](CC(=O)O)NC(=O)[C@H](CCCCN)NC(=O)[C@H](CCC(=O)O)NC(=O)CNC(=O)[C@@H](NC(=O)[C@H](CO)NC(=O)[C@@H]2CCCN2C(=O)[C@@H](N)CC(C)C)[C@@H](C)O)[C@@H](C)O)C(C)C)C(=O)NCC(=O)N[C@@H](CCCCN)C(=O)N[C@@H](CCC(=O)O)C(=O)N1)C(=O)N[C@H](C(N)=O)C(C)C [ssTAMP] (H-LPSTGEKDTAVFRNGGFFRKSKEK[S5]GKE[S5]KRIV-NH2; staple 25-29; N-terminus assumed)
- Zone of inhibition [1]: 20.63±0.85 mm
- Zone of inhibition [2]: 24.30±1.08 mm
- Zone of inhibition [3]: 9.60±0.32 mm
- Zone of inhibition [4]: 22.23±1.39 mm
- Zone of inhibition [5]: 20.17±0.72 mm
- Zone of inhibition [6]: 23.47±1.40 mm
- IC50, cytotoxicity by MTT assay [18]: 265.0 µg/mL
- cells viable ([18]; 250 μg/ml): more than 50%
- IC50, cytotoxicity by MTT assay [19]: 558.2 µg/mL
- cells viable ([19]; 250 μg/ml): more than 50%
- Minimum Inhibitory concentration [7]: 8.33 ± 2.08 µg/mL
- Minimum Inhibitory concentration [7, 21]: 8.33 ± 2.08 µg/mL
- Minimum Inhibitory concentration [8]: 10.42 ± 2.08 µg/mL
- Minimum Inhibitory concentration [8, 22]: 10.42 ± 2.08 µg/mL
- Minimum Inhibitory concentration [20]: 12.50 ± 0.000 µg/mL
- Minimum Inhibitory concentration ([20]; S. aureus, microdilution, overnight 37° C., mean±SD, n=3): 12.50 ± 0.000 µg/mL
- Minimum Inhibitory concentration [9]: 8.33 ± 2.08 µg/mL
- Minimum Inhibitory concentration [9, 23]: 8.33 ± 2.08 µg/mL
- Minimum Inhibitory concentration [10]: 5.21 ± 1.05 µg/mL
- Minimum Inhibitory concentration [10, 24]: 5.21 ± 1.05 µg/mL
- Minimum Inhibitory concentration [11]: 5.21 ± 1.042 µg/mL
- Minimum Inhibitory concentration [11, 25]: 5.21 ± 1.042 µg/mL
